Legend:
menopausal mice = conditions: apelin highly expressed in epidermis (K14 promoter transgene, OVXTG) vs OVXWT; nifedipine 50 µg/kg i.p.; 10, 30 and 45 minutes; FIG. 1
Procedure: Ovariectomy was performed on C57/BL6 mice highly expressing apelin in the epidermis under the control of a K14 promoter (herein after referred to as apelin-highly expressed mice, apelin TG or TG) and the corresponding wild-type mice (C57/BL6) (n=5, 8 to 10 week-old) to obtain menopausal mice highly expressing apelin and menopausal wild type mice. Furthermore, wild type mice that underwent sham surgery were used as a control. Four weeks later, nifedipine (50 µg/kg) was administered intraperitoneally as a vasodilator, and changes in tail temperature were analyzed using thermography (Thermo Tracer TH9011MR, NEC/Avio Infrared Technologies Co., Ltd.) at 10, 30 and 45 minutes after administration.

Apelin receptor APJ = assay: cAMP luciferase assay in APJ-expressing NIH3T3 cells (screening system for apelin-like agents); type: cell-based; conditions: FIG. 3
Procedure: A cAMP luciferase reporter vector was transfected into a stable cell line, which was obtained by highly expressing Apelin receptor APJ in NIH3T3 cells, and then subjecting to selection with hygromycin (provided by Professor Nobuyuki Takakura of the Research Institute for Microbial Diseases of Osaka University), and these were used in the cAMP luciferase assay described below. Culturing was carried out in DMEM medium containing 10% FBS containing 200 µg/ml of hygromycin (Invitrogen). On the day before the assay, 2.0 x 10^5 cells were seeded into each well of a 96-well plate followed by culturing in DMEM medium containing 10% FBS and 200 µg/ml of hygromycin.
After culturing overnight, the medium was removed by aspiration and replaced with 100 µl of additive-free DMEM per well. Three hours later, Glosensor™ cAMP Reagent (Promega) was added at 4 µl per well followed by equilibrating for 2 hours at room temperature under light blocking. Subsequently, apelin 13 (Peptide Institute) was diluted with additive-free DMEM medium to a concentration of 0.4 µg/ml and this was added at 50 µl per well (final concentration: 0.1 µg/ml) followed by incubating for 5 minutes at room temperature. […] Subsequently, luminescence was measured with the GloMax™ 96 Microplate Luminometer (Promega). […]

## apelin
Menopausal mice
  transient rises in body temperature (tail temperature) caused by hot flashes: able to suppress or improve transient rises in body temperature caused by hot flashes in a short period of time
Apelin receptor APJ; apelin 13 final concentration 0.1 µg/ml, forskolin final 10 µM, versus forskolin-only control
  cAMP concentration: decreased
Apelin receptor APJ; apelin final 0.5 µg/ml together with neutralizing antibody 4G5 at 1.5, 5, 15 and 50 µg/ml
  decreases in cAMP concentration in the presence of apelin neutralizing antibody: suppressed
